Consider 1 compound from patent US8119667B2, “Carbonates of fenicol antibiotics” (Schering-Plough Animal Health Corporation, priority 2005, dated 2012).

Data set [1] can be described thus: In vitro enzymatic release of parent florfenicol from prodrugs in bovine serum. As to conditions: 37° C. In kind it is in vitro ADME. An excerpt: The ability of a prodrug derivative of a parent drug molecule to act efficiently in vivo as a source of the free parent drug determines the utility of a particular prodrug for treatment. The prodrug's ability to release the parent drug in vivo, in the presence of endogenous enzymes, can be determined by measuring the systemic levels of the parent drug after administration of the prodrug to the animal. This releasibility can also be assessed in vitro by measuring the release of the parent drug after mixing with animal whole blood, plasma or serum. Selected benzylic carbonate prodrugs of florfenicol were tested for release of florfenicol after in vitro mixing with bovine serum. […] A general trend of more lipophilic carbonates of florfenicol showing higher rates of degradation and release seems to be present among the compounds tested.
50 microliter of stock solution of carbonate pro-drug (10 mg/mL in DMSO) was added to 5 mL donor bovine serum and mixed. Aliquots of 400 microliter of the resulting solution were transferred into 1.5 mL plastic centrifuge tubes. Each plastic tube was placed into at 37° C. water bath for incubation. Samples were removed at 0, 1, 2, 4, 8, and 24 hours, and after addition of 400 microliter of acetonitrile to stop the reaction, rapidly stirred for 30 seconds. The precipitate was removed by centrifugation on an Eppendorf 5415G at 14000 rpm for 5 minutes. The clear supernatant solution was sampled for the HPLC analysis. The peak area of florfenicol was used to calculate the conversion of the prodrugs.

A short description of the next data set: Aqueous solubility. The class given is physicochemical. As to conditions: aqueous medium (not further specified). As to the method: In some therapeutic applications florfenicol is administered in concentrated organic solution subcutaneously where it is known to form localized depot of the drug which results in the desired sustained release of the drug into the circulation. In such cases solubility of florfenicol in aqueous media represents one of important factors determining the rate of the sustained release. Another important factor affecting the sustained release of florfenicol from the subcutaneous depot site is the concentration of the dosing solution and the solvent composition of the formulation. Apart from the broader range of solvents which can be used for acceptable formulations of florfenicol benzylic carbonate prodrugs these prodrugs also allow a wide range of aqueous solubilities. Solubilities achieved with these prodrugs range from slightly to dramatically lower than that of florfenicol. Reduced aqueous solubilities of such prodrugs may be useful in controlling the rate of dissolution of the prodrug at the subcutaneous depot site and may allow achieving optimized sustained release of the parent drug.

The nature of data set [2]: Syringeability of dosing solutions (dripping-syringe method). In kind it is physicochemical. As to conditions: prodrug concentration equivalent to 300 mg/ml florfenicol, Triacetin/benzyl alcohol - 2:1 (vol/vol). The procedure: Table 4, below, provides evaluations of the syringeability of dosing solutions of selected florfenicol benzylic carbonate prodrugs at concentrations equivalent to 300 mg/ml florfenicol (30% weight/volume).
High concentrations of fenicol or fenicol drug contained in a fenicol prodrug are often necessary for convenient administration of the necessary amount of the desired amount of the antibiotic. Due to the limited solubility of fenicols in many organic solvents or mixtures of solvents acceptable for injectable formulations the choice of solvents for preparation of highly concentrated florfenicol solutions is limited. As a result highly concentrated solutions of fenicol drugs in organic solvents or solvent mixtures may become highly viscous and difficult to administer by a syringe. Therefore the ability of fenicol benzylic carbonate prodrugs to dissolve in a wider range of organic solvents or mixtures of solvents acceptable for injectable formulations offered the potential to prepare highly concentrated solutions for injections with lower viscosity. […] Test solutions of florfenicol benzylic carbonates containing concentrations of florfenicol (mg/mL) equivalent to the concentration present in Nuflor® formulation were prepared. Syringeabilities of the solutions were evaluated by means of the “dripping syringe” method in which the dripping times (sec) of equal volumes of such solutions under free gravitational flow conditions from a vertically positioned syringe were measured at 15° C. After removing the plunger from a 5 ml polyethylene disposable syringe (5 ml Luer, Norm-Ject Zentrish/Henke Saas Wolf GMBH) and fitting the syringe with a disposable needle (B-D® 16G1 Precision Glide/BentonDickinson & CO) the test solutions were loaded from the top into the syringe and the time necessary for the free flow of 2 mL of solution (between 3 ml and 1 ml marks) was recorded in triplicate. The syringeabilities relative to Nuflor® were calculated by dividing the dripping time for the test solutions (entries 1-12) by the dripping time measured for the commercial sample of Nuflor® formulation (entry 13) As it is evident from the results in Table 4 the syringeabilities of tested solutions containing benzyl alcohol as viscosity diluent had relative syringeabilities <1.00 and were therefore better than Nuflor® (30% weight/volume florfenicol solution in propylene glycol/polyethylene glycol 300/2-methyl pyrolidinone). Due to their better syringeability these solutions represent more favorable formulations for injectable delivery of florfenicol. Solution of the florfenicol benzylic carbonate of the example 2 in triacetin/2-pyrolidinone—1/1 lacking the benzyl alcohol viscosity diluent was the only solution with syringeability poorer that than that of Nuflor® (entry 5).

The nature of data set [3]: Solubility in triacetin/benzyl alcohol 2:1 (volume/volume) solvent mixture. As to conditions: 20° C. In kind it is physicochemical. The procedure: Florfenicol parent drug was not soluble in triacetin/benzyl alcohol 2:1 (volume/volume) even at concentrations as low as 10% (weight/volume). […] The combination of prodrug of Example 14 at 275 mg/ml and florfenicol at 100 mg/ml was soluble in triacetin/benzyl alcohol 2:1 (volume/volume) and provided a stable solution with 30% (weight/volume) content of florfenicol (Table 4, supra, entry 12).

≈ marks a conversion by molar mass, not a printed value.

One may read the solubility as the concentration that dissolves in the medium under given conditions. By melting point is commonly meant the temperature, or range, at which the solid turns liquid. Consider `CS(=O)(=O)c1ccc([C@@H](OC(=O)OCCOC(=O)O[C@H](c2ccc(S(C)(=O)=O)cc2)[C@@H](CF)NC(=O)C(Cl)Cl)[C@@H](CF)NC(=O)C(Cl)Cl)cc1` [Example 26, Bis((1R,2S)-2-(2,2-dichloroacetamido)-3-fluoro-1-(4-(methylsulfonyl)phenyl)propyl)ethane-1,2-diyl dicarbonate], for which the melting point lay in the range of 110 to 112 °C. The “Florfenicol released from prodrugs (% of total) after treatment with bovine serum” value in data set [1] (0 h) was “BQL”. Further, in data set [1] (1 h), the “Florfenicol released from prodrugs (% of total) after treatment with bovine serum” value is recorded as “BQL”. In the data set “Aqueous solubility”, this compound came in with a solubility of 45 µg/mL (≈ 54.2 µM). In addition, the “Syringeability measurement: Relative to NUFLOR” value in data set [2] (15° C.) was 0.93. Further, in data set [2] (free flow of 2 mL at 15° C.), the “Syringeability measurement: Dripping time” value was found to be 216 ± 8 s. Further, the “Solubility at selected concentration of contained florfenicol” value (shortened to “Solubility at selected concentration”) in data set [3] (10% weight/volume florfenicol) is recorded as “soluble”. For the same compound, in data set [3] (20% weight/volume florfenicol), the “Solubility at selected concentration” value was “soluble”. The “Solubility at selected concentration” value in data set [3] (25% weight/volume florfenicol) is “soluble”. Further, the “Solubility at selected concentration” value in data set [3] (30% weight/volume florfenicol) is “soluble”. Further, the “Solubility at selected concentration” value in data set [3] (35% weight/volume florfenicol) was “soluble”. Further, the “Solubility at selected concentration” value in data set [3] (37% weight/volume florfenicol) is listed as “soluble”. For the same compound, in data set [3] (40% weight/volume florfenicol), the “Solubility at selected concentration” value is “soluble”.
